This note sets out measurements from US20240261417A1, “SOS1 DEGRADING AGENT AND PREPARATION METHOD THEREFOR AND APPLICATION THEREOF” (SHANGHAI LEADINGTAC PHARMACEUTICAL CO. LTD., priority 2021, published 2024).

This assay has as its target T1, SOS1 protein (Homo sapiens, UniProt Q07889).
T1 sequence (Q07889 1-1333): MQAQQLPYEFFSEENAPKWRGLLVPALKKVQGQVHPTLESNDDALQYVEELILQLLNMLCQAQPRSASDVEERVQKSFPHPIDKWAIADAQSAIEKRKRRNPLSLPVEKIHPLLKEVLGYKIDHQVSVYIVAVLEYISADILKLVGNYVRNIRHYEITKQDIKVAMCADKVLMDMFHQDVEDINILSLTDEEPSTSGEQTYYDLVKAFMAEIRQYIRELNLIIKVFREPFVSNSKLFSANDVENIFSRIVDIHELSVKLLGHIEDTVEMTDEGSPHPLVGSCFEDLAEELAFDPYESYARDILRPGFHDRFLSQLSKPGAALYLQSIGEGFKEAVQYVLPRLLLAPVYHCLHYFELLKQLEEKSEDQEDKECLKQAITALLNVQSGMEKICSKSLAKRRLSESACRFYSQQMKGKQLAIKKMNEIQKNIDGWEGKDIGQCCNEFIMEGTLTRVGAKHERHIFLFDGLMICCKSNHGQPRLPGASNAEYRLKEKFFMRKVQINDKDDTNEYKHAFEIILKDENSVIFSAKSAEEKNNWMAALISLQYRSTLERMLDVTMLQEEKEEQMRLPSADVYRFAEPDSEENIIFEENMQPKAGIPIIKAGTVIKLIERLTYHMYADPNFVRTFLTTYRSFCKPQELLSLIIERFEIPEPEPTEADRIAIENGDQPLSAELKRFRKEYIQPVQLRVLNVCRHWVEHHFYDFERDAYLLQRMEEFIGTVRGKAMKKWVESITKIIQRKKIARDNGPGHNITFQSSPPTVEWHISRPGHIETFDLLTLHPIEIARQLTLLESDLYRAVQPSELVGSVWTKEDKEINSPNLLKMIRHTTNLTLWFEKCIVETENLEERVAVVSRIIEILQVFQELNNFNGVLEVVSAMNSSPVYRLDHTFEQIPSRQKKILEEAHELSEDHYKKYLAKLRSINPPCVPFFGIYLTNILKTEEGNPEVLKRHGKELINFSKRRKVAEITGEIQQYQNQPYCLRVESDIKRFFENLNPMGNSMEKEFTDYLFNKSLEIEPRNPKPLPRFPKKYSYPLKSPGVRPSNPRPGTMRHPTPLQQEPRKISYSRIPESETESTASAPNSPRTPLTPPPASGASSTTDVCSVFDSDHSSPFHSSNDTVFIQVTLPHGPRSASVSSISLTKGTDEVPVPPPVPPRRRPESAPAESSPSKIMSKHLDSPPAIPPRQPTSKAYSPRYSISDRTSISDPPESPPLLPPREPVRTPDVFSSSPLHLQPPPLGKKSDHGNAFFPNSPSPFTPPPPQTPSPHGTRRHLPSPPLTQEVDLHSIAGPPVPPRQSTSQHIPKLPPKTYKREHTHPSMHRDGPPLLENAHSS
The experiment in a line: SOS1 degradation assay (Western blot), NCI-H358 cells. Type of assay: cell-based. The following applies: SOS1 degradation, NCI-H358 cells, 24 h, Western blot; for DC50: read-out: NCI-H358 (G12C) DC50; for Dmax: read-out: NCI-H358 (G12C) Dmax. Set-up: The degradation of SOS1 by the compounds was investigated on KRAS G12C mutant human non-small cell lung cancer cells NCI-H358; host or cells: NCI-H358 (human cancer cell lines). The method, boiled down:
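Cells at 5×10^5 per well were treated for 24 h at 37 °C with compound at 0.03–3000 nM final. SOS1 in lysates was measured by Western blot with chemiluminescent densitometry and normalised to the control group. DC50 and Dmax came from nonlinear fits against log concentration.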
Background: Immunoblotting shows a protein as a band on a membrane.

Regarding `COc1cc2nc(C)nc(N[C@@H](C)c3cc(N)cc(C(F)(F)F)c3)c2cc1[C@H]1CC[C@@H](C(=O)N2CCN(CCC3CCC4(CC3)CCN(C(=O)c3ccc(Cl)c(N5CCC(=O)NC5=O)c3)CC4)CC2)CC1` [Example 34, 1-(5-(9-(2-(4-((1S,4S)-4-(4-(((R)-1-(3-amino-5-(trifluoromethyl)phenyl)ethyl)amino)-7-methoxy-2-methylquinazolin-6-yl)cyclohexane-1-carbonyl)piperazin-1-yl)ethyl)-3-azaspiro[5.5]undecane-3-carbonyl)-2-chlorophenyl)dihydropyrimidine-2,4(1H,3H)-dione], the “NCI-H358 (G12C) Dmax” value is recorded as “C (when 30≤Dmax (%)<50, the level was C)”.

A word on the DC50: it is the concentration giving 50% degradation. As for `CCNc1cc([C@@H](C)Nc2nc(C)nc3cc(OC)c([C@H]4CC[C@H](C(=O)N5CCN(CC6CCC7(CC6)CCN(C(=O)c6ccc(Cl)c(N8CCC(=O)NC8=O)c6)CC7)CC5)CC4)cc23)cc(C(F)(F)F)c1` [Example 35, 1-(2-chloro-5-(9-((4-((1R,4R)-4-(4-(((R)-1-(3-(ethylamino)-5-(trifluoromethyl)phenyl)ethyl)amino)-7-methoxy-2-methylquinazolin-6-yl)cyclohexane-1-carbonyl)piperazin-1-yl)methyl)-3-azaspiro[5.5]undecane-3-carbonyl)phenyl)dihydropyrimidine-2,4(1H,3H)-dione], the “NCI-H358 (G12C) Dmax” value is reported as “C (when 30≤Dmax (%)<50, the level was C)” and the DC50 is 1 to 10 µM.

Usually Dmax stands for the largest share of the target that was removed. On to `COc1ccc(C(=O)N2CCC(COCCC3CCN(C(=O)[C@H]4CC[C@H](c5cc6c(N[C@H](C)c7cc(N)cc(C(F)(F)F)c7)nc(C)nc6cn5)CC4)CC3)CC2)cc1N1CCC(=O)NC1=O` [Example 36, 1-(5-(4-((2-(1-((1R,4R)-4-(4-(((R)-1-(3-amino-5-(trifluoromethyl)phenyl)ethyl)amino)-2-methylpyrido[3,4-d]pyrimidin-6-yl)cyclohexane-1-carbonyl)piperidin-4-yl)ethoxy)methyl)piperidine-1-carbonyl)-2-methoxyphenyl)dihydropyrimidine-2,4(1H,3H)-dione], for which the DC50 was in the range of 0.1 to 0.5 µM and the Dmax fell in the range of 50 to 80%.

As for `COc1cc2nc(C)nc(N[C@H](C)c3cc(N)cc(C(F)(F)F)c3)c2cc1[C@H]1CC[C@H](C(=O)N2CCN(CC3CCN(C(=O)COc4ccc(Cl)c(N5CCC(=O)NC5=O)c4)CC3)CC2)CC1` [Example 37, 1-(5-(2-(4-((4-((1R,4R)-4-(4-(((R)-1-(3-amino-5-(trifluoromethyl)phenyl)ethyl)amino)-7-methoxy-2-methylquinazolin-6-yl)cyclohexane-1-carbonyl)piperazin-1-yl)methyl)piperidin-1-yl)-2-oxoethoxy)-2-chlorophenyl)dihydropyrimidine-2,4(1H,3H)-dione], the DC50 was 1 to 10 µM and the Dmax is less than 30%.

In the case of `COc1cc2nc(C)nc(N[C@H](C)c3cc(N)cc(C(F)(F)F)c3)c2cc1[C@H]1CC[C@H](C(=O)N2CCC(CCCN(C)C3CCN(Cc4ccc(Cl)c(N5CCC(=O)NC5=O)c4)CC3)CC2)CC1` [Example 38, 1-(5-((4-((3-(1-((1R,4R)-4-(4-(((R)-1-(3-amino-5-(trifluoromethyl)phenyl)ethyl)amino)-7-methoxy-2-methylquinazolin-6-yl)cyclohexane-1-carbonyl)piperidin-4-yl)propyl)(methyl)amino)piperidin-1-yl)methyl)-2-chlorophenyl)dihydropyrimidine-2,4(1H,3H)-dione], the DC50 is 1 to 10 µM and the Dmax was less than 30%.

On to `COc1cc2nc(C)nc(N[C@H](C)c3cc(N)cc(C(F)(F)F)c3)c2cc1C1CCC(C(=O)N2CCC(CCOCC3CCN(C(=O)c4ccc5c(c4)C(=O)N(C4CCC(=O)NC4=O)C5=O)CC3)CC2)CC1` (stereo partly drawn) [Example 39, 5-(4-((2-(1-((1S,4S)-4-(4-(((R)-1-(3-amino-5-(trifluoromethyl)phenyl)ethyl)amino)-7-methoxy-2-methylquinazolin-6-yl)cyclohexane-1-carbonyl)piperidin-4-yl)ethoxy)methyl)piperidine-1-carbonyl)-2-(2,6-dioxopiperidin-3-yl)isoindoline-1,3-dione], for which the DC50 was less than 0.05 µM and the Dmax is 80 to 100%.

On to `[2H]C1([2H])CC(OCC2CCN(C(=O)c3ccc(Cl)c(N4CCC(=O)NC4=O)c3)CC2)CC([2H])([2H])N1C(=O)[C@H]1CC[C@H](c2cc3c(N[C@H](C)c4cc(N)cc(C(F)(F)F)c4)nc(C)nc3cc2OC)CC1` [Example 40, 1-(5-(4-(((1-((1R,4R)-4-(4-(((R)-1-(3-amino-5-(trifluoromethyl)phenyl)ethyl)amino)-7-methoxy-2-methylquinazolin-6-yl)cyclohexane-1-carbonyl)piperidin-4-yl-2,2,6,6-d4)oxy)methyl)piperidine-1-carbonyl)-2-chlorophenyl)dihydropyrimidine-2,4(1H,3H)-dione], for which the DC50 lay in the range of 1 to 10 µM and the Dmax was less than 30%.

`COc1cc2nc(C)nc(N[C@H](C)c3cc(-c4c(Cl)cccc4CN(C)C)cs3)c2cc1[C@H]1CC[C@H](C(=O)N2CCC(CCOCC3CCN(c4ccc5c(c4)C(=O)N(C4CCC(=O)NC4=O)C5=O)CC3)CC2)CC1` (stereo partly shown) [Example 41]: the DC50 lay within 0.1 to 0.5 µM and the Dmax fell in the range of 80 to 100%.

As to `Cc1nc(N[C@H](C)c2cc(N)cc(C(F)(F)F)c2)c2cc(-c3ccn(CCCN(C)CC4CCC5(CC4)CCN(C(=O)c4ccc(Cl)c(N6CCC(=O)NC6=O)c4)CC5)c(=O)c3)c(C)cc2n1` [Example 42, (R)-1-(5-(9-(((3-(4-(4-((1-(3-amino-5-(trifluoromethyl)phenyl)ethyl)amino)-2,7-dimethylquinazolin-6-yl)-2-oxopyridin-1(2H)-yl)propyl)(methyl)amino)methyl)-3-azaspiro[5.5]undecane-3-carbonyl)-2-chlorophenyl)dihydropyrimidine-2,4(1H,3H)-dione], the DC50 fell in the range of 1 to 10 µM and the Dmax lay within 30 to 50%.

As to `COc1cc2nc(C)nc(N[C@H](C)c3cc(-c4ccccc4CN(C)C)cs3)c2cc1[C@H]1CC[C@H](C(=O)N2CCC(CCOCC3CCN(C(=O)c4ccc(Cl)c(N5CCC(=O)NC5=O)c4)CC3)CC2)CC1` [Example 48], the DC50 was less than 0.05 µM and the Dmax lay in the range of 80 to 100%.

On to `CNCc1ccccc1-c1csc([C@@H](C)Nc2nc(C)nc3cc(OC)c([C@H]4CC[C@H](C(=O)N5CCN(CC6CCC7(CC6)CCN(C(=O)c6ccc(F)c(N8CCC(=O)NC8=O)c6)CC7)CC5)CC4)cc23)c1` [Example 74, 1-(2-fluoro-5-(9-((4-((1R,4R)-4-(7-methoxy-2-methyl-4-(((R)-1-(4-(2-((methylamino)methyl)phenyl)thien-2-yl)ethyl)amino)quinazolin-6-yl)cyclohexane-1-carbonyl)piperazin-1-yl)methyl)-3-azaspiro[5.5]undecane-3-carbonyl)phenyl)dihydropyrimidine-2,4(1H,3H)-dione], for which the DC50 was less than 0.05 µM and the maximal degradation (Dmax) is 80 to 100%.

For `[2H]C([2H])(OCC1CCN(C(=O)c2ccc(Cl)c(N3CCC(=O)NC3=O)c2)CC1)C1CCN(C(=O)[C@H]2CC[C@H](c3cc4c(N[C@H](C)c5cc(N)cc(C(F)(F)F)c5)nc(C)nc4cc3OC)CC2)CC1` [Example 76, 1-(5-(4-(((1-((1R,4R)-4-(4-(((R)-1-(3-amino-5-(trifluoromethyl)phenyl)ethyl)amino)-7-methoxy-2-methylquinazolin-6-yl)cyclohexane-1-carbonyl)piperidin-4-yl)methoxy-d2)methyl)piperidine-1-carbonyl)-2-chlorophenyl)dihydropyrimidine-2,4(1H,3H)-dione], the “NCI-H358 (G12C) Dmax” value is reported as “B (when 50≤Dmax (%)<80, the level was B)”.
